Measured values reported in the supplement of paper PMC11061612.

Assays:
[1] = test system: RPMI-8402 (T-Lymphoblastic Leukemia); test: combination Emax (second highest fraction inhibited in the dose matrix, 72 h); higher = more inhibition; extreme values may be limits of the assay
Summary of the method: (§1)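 Cell lines in DMEM/F12 or RPMI with 10% FBS were plated in 1536-well plates, held 24 hours at 37°C, 5% CO2, then given two-drug dose matrices for 72 hours (DMSO typically 0.2%). Viability was read by CellTiter-Glo 2.0 luminescence and scaled as inhibition from 0 (vehicle wells) to 1 (blank wells). Combination Emax is the second-highest inhibition in the matrix; Bliss excess is observed combination effect minus expected EA + EB − EA·EB, EA and EB being single-agent effects.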

[2] = test system: MRK-nu-1 (Breast Carcinoma); test: as above
Summary of the method: as §1

[3] = test system: CAL-85-1 (Breast Carcinoma); test: as above
Summary of the method: as §1

[4] = test system: SBC-3 (Small Cell Lung Carcinoma); test: as above
Summary of the method: as §1

[5] = test system: SW1463 (Colorectal Carcinoma); test: as above
Summary of the method: as §1

[6] = test system: NCI-H2009 (Lung Adenocarcinoma); test: as above
Summary of the method: as §1

[7] = test system: A375 (Melanoma); test: as above
Summary of the method: as §1

[8] = test system: NTERA-2-cl-D1 (Other Solid Carcinomas); test: as above
Summary of the method: as §1

[9] = test system: NCI-H2452 (Mesothelioma); test: as above
Summary of the method: as §1

[10] = test system: BC-1 (B-Cell Non-Hodgkin's Lymphoma); test: as above
Summary of the method: as §1

[11] = test system: OVKATE (Ovarian Carcinoma); test: as above
Summary of the method: as §1

[12] = test system: NCI-H1648 (Lung Adenocarcinoma); test: as above
Summary of the method: as §1

[13] = test system: L-363 (Plasma Cell Myeloma); test: as above
Summary of the method: as §1

[14] = test system: GCIY (Gastric Carcinoma); test: as above
Summary of the method: as §1

[15] = test system: NCI-H2023 (Non-Small Cell Lung Carcinoma); test: as above
Summary of the method: as §1

[16] = test system: C32 (Melanoma); test: as above
Summary of the method: as §1

[17] = test system: NCI-H835 (Other Solid Carcinomas); test: as above
Summary of the method: as §1

[18] = test system: COR-L105 (Lung Adenocarcinoma); test: as above
Summary of the method: as §1

[19] = test system: SK-MEL-24 (Melanoma); test: as above
Summary of the method: as §1

[20] = test system: KNS-62 (Squamous Cell Lung Carcinoma); test: as above
Summary of the method: as §1

[21] = test system: MDA-MB-175-VII (Breast Carcinoma); test: as above
Summary of the method: as §1

[22] = test system: NCI-H1435 (Non-Small Cell Lung Carcinoma); test: as above
Summary of the method: as §1

[23] = test system: MG-63 (Osteosarcoma); test: as above
Summary of the method: as §1

[24] = test system: RPMI-8402 (T-Lymphoblastic Leukemia); test: Bliss excess, mean over the matrix (fraction); higher = more synergy
Summary of the method: as §1

[25] = test system: MRK-nu-1 (Breast Carcinoma); test: as above
Summary of the method: as §1

[26] = test system: CAL-85-1 (Breast Carcinoma); test: as above
Summary of the method: as §1

[27] = test system: SBC-3 (Small Cell Lung Carcinoma); test: as above
Summary of the method: as §1

[28] = test system: SW1463 (Colorectal Carcinoma); test: as above
Summary of the method: as §1

[29] = test system: NCI-H2009 (Lung Adenocarcinoma); test: as above
Summary of the method: as §1

[30] = test system: A375 (Melanoma); test: as above
Summary of the method: as §1

[31] = test system: NTERA-2-cl-D1 (Other Solid Carcinomas); test: as above
Summary of the method: as §1

[32] = test system: NCI-H2452 (Mesothelioma); test: as above
Summary of the method: as §1

[33] = test system: BC-1 (B-Cell Non-Hodgkin's Lymphoma); test: as above
Summary of the method: as §1

[34] = test system: OVKATE (Ovarian Carcinoma); test: as above
Summary of the method: as §1

[35] = test system: NCI-H1648 (Lung Adenocarcinoma); test: as above
Summary of the method: as §1

[36] = test system: L-363 (Plasma Cell Myeloma); test: as above
Summary of the method: as §1

[37] = test system: GCIY (Gastric Carcinoma); test: as above
Summary of the method: as §1

[38] = test system: NCI-H2023 (Non-Small Cell Lung Carcinoma); test: as above
Summary of the method: as §1

[39] = test system: C32 (Melanoma); test: as above
Summary of the method: as §1

[40] = test system: NCI-H835 (Other Solid Carcinomas); test: as above
Summary of the method: as §1

[41] = test system: COR-L105 (Lung Adenocarcinoma); test: as above
Summary of the method: as §1

[42] = test system: SK-MEL-24 (Melanoma); test: as above
Summary of the method: as §1

[43] = test system: KNS-62 (Squamous Cell Lung Carcinoma); test: as above
Summary of the method: as §1

[44] = test system: MDA-MB-175-VII (Breast Carcinoma); test: as above
Summary of the method: as §1

[45] = test system: NCI-H1435 (Non-Small Cell Lung Carcinoma); test: as above
Summary of the method: as §1

[46] = test system: MG-63 (Osteosarcoma); test: as above
Summary of the method: as §1
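Wherever Bliss excess, mean over the matrix is given: after 72 h of two-drug dosing.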

O=C(c1cc(Cc2n[nH]c(=O)c3ccccc23)ccc1F)N1CCN(C(=O)C2CC2)CC1 [Olaparib] + COc1nnc2ccc(N3CCC(c4ccc(OCCN5CCN(C)C(=O)[C@H]5C)cc4)CC3)nn12 [AZD5153] (first compound max 10 µM, 7x7, partner max 1 µM)
combination Emax [1]: 0.9 | combination Emax [2]: 0.467 | combination Emax [3]: 0.613 | combination Emax [4]: 0.703 | combination Emax [5]: 0.561 | combination Emax [6]: 0.374 | combination Emax [7]: 0.425 | combination Emax [8]: 0.649 | combination Emax [9]: 0.407 | combination Emax [10]: 0.873 | combination Emax [11]: 0.264 | combination Emax [12]: 0.684 | combination Emax [13]: 0.468 | combination Emax [14]: 0.487 | combination Emax [15]: 0.344 | combination Emax [16]: 0.22 | combination Emax [17]: 0.403 | combination Emax [18]: 0.404 | combination Emax [19]: 0.419 | combination Emax [20]: 0.436 | combination Emax [21]: 0.316 | combination Emax [22]: 0.223 | combination Emax [23]: 0.717 | Bliss excess [24]: -0.0277 | Bliss excess [25]: 0.0665 | Bliss excess [26]: -0.026 | Bliss excess [27]: -0.0786 | Bliss excess [28]: -0.0601 | Bliss excess [29]: -0.044 | Bliss excess [30]: -0.0229 | Bliss excess [31]: -0.127 | Bliss excess [32]: -0.0361 | Bliss excess [33]: -0.0048 | Bliss excess [34]: -0.0686 | Bliss excess [35]: -0.0388 | Bliss excess [36]: 0.0357 | Bliss excess [37]: -0.0248 | Bliss excess [38]: -0.0624 | Bliss excess [39]: -0.0595 | Bliss excess [40]: -0.0422 | Bliss excess [41]: -0.0689 | Bliss excess [42]: -0.0814 | Bliss excess [43]: -0.0631 | Bliss excess [44]: -0.0024 | Bliss excess [45]: -0.022 | Bliss excess [46]: -0.0749

Cc1nc(-c2cn3c(n2)-c2ccc(-c4cnn(C(C)(C)C(N)=O)c4)cc2OCC3)n(C(C)C)n1 [Taselisib] + O=C(Nc1ccc2[nH]nc(-c3ccncc3)c2c1)[C@@H]1CCN(CC(=O)N2CCN(c3ccc(-c4ncccn4)cc3)CC2)C1 [SCH772984] (first compound max 10 µM, 7x7, partner max 5 µM)
combination Emax [1]: 0.898 | combination Emax [2]: 0.542 | combination Emax [3]: 0.935 | combination Emax [4]: 0.76 | combination Emax [5]: 0.798 | combination Emax [6]: 0.919 | combination Emax [7]: 0.918 | combination Emax [8]: 0.64 | combination Emax [9]: 0.534 | combination Emax [10]: 0.652 | combination Emax [11]: 0.423 | combination Emax [12]: 1 | combination Emax [13]: 0.63 | combination Emax [14]: 0.888 | combination Emax [15]: 0.665 | combination Emax [16]: 1 | combination Emax [17]: 0.71 | combination Emax [18]: 0.788 | combination Emax [19]: 0.93 | combination Emax [20]: 0.787 | combination Emax [21]: 1 | combination Emax [22]: 0.791 | combination Emax [23]: 0.746 | Bliss excess [24]: 0.0802 | Bliss excess [25]: 0.0385 | Bliss excess [26]: 0.0682 | Bliss excess [27]: 0.11 | Bliss excess [28]: 0.0102 | Bliss excess [29]: 0.0964 | Bliss excess [30]: 0.133 | Bliss excess [31]: -0.0322 | Bliss excess [32]: -0.0276 | Bliss excess [33]: 0.139 | Bliss excess [34]: 0.0487 | Bliss excess [35]: 0.115 | Bliss excess [36]: 0.176 | Bliss excess [37]: -0.0131 | Bliss excess [38]: -0.0437 | Bliss excess [39]: 0.0706 | Bliss excess [40]: 0.0323 | Bliss excess [41]: 0.052 | Bliss excess [42]: 0.0017 | Bliss excess [43]: 0.0108 | Bliss excess [44]: 0.138 | Bliss excess [45]: 0.0352 | Bliss excess [46]: -0.0764
